Experimental data published in patent publication US9546164B2 (GENENTECH, INC., priority 2013, dated 2017).
Counter-ions that a name gives are not always drawn. Like-named read-outs stand apart in the source and are kept apart here.

Biological target: hNav1.7 (Homo sapiens (Human), UniProt Q15858)
Assay: Tritiated sulfonamide competitive binding to membranes from cells expressing hNav1.7 and the β1 subunit;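 further: Filter-bound radioactivity counted by liquid scintillation, nonspecific binding defined with excess unlabelled ligand, IC50 fitted to percent inhibition of specific binding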
[1] = read-out: Ligand Binding Assay, 100 pM [3H]compound, membranes with hNav1.7 and β1 subunit, 18 h, room temperature

hNav1.7, sequence (Q15858 other isoform, or with tags, fused parts or gaps): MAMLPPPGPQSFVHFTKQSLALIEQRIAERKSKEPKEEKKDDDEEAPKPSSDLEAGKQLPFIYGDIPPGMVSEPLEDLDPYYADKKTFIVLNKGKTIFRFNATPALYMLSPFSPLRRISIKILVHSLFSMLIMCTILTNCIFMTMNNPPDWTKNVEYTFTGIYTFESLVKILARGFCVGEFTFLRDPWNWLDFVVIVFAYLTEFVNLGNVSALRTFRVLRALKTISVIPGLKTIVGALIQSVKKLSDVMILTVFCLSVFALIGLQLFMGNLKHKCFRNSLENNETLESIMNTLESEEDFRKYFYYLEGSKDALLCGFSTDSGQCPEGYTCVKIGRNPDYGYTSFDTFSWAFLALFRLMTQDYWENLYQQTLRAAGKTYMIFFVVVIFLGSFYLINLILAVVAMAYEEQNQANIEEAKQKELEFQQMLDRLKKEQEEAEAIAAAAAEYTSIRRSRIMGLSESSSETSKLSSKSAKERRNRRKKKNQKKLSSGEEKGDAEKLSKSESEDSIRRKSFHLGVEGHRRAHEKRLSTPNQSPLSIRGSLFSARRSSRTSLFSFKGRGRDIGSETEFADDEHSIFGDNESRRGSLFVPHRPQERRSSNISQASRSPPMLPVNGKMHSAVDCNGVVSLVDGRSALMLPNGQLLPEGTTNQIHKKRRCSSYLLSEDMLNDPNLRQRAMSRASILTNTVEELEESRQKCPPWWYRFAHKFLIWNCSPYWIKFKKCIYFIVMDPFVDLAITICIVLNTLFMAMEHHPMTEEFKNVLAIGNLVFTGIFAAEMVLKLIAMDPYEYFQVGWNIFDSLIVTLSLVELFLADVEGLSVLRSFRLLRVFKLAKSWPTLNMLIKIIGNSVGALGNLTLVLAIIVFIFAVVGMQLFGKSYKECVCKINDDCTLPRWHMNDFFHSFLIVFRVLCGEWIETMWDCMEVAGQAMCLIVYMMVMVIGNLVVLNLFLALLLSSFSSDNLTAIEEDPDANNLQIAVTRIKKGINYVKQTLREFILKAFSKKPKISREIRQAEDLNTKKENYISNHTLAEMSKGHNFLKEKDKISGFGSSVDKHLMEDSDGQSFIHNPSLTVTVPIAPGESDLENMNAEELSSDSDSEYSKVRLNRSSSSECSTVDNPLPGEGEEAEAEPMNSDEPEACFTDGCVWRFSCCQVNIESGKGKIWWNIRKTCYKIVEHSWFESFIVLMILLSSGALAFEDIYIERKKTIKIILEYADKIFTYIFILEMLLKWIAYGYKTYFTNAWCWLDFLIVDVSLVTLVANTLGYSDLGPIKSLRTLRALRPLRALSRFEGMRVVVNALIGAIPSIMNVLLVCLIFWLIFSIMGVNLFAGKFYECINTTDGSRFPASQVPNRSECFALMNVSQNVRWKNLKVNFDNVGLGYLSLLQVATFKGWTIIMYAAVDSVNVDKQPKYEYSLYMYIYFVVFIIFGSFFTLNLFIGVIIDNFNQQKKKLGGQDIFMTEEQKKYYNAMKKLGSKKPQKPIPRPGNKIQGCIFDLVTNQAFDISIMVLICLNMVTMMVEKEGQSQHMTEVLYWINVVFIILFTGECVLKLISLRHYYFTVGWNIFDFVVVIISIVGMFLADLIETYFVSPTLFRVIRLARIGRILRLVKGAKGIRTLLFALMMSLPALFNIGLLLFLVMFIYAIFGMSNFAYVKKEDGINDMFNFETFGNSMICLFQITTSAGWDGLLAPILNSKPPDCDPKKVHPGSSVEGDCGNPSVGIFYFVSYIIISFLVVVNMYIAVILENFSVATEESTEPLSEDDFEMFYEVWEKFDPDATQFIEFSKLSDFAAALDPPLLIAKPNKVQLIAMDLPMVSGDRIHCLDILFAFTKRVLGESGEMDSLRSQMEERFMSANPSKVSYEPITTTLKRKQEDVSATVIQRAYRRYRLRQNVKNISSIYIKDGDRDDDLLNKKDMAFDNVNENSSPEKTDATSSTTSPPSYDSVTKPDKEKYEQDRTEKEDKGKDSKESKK
hNav1.7, sequence (Q07699 19-218 partner): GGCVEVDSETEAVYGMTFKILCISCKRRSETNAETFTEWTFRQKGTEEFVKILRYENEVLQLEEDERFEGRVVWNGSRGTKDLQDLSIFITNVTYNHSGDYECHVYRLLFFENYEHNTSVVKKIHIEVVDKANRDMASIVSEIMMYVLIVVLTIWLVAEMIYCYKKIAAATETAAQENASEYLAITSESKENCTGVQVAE

IC50 [1] [nM] | IC50 [nM] | SMILES
3 | – | CS(=O)(=O)NC(=O)c1cc(C2CC2)c(OCC2CCN(Cc3cc(F)c(Cl)cc3Cl)CC2)cc1F [Example 453, 5-cyclopropyl-4-((1-(2,4-dichloro-5-fluorobenzyl)piperidin-4-yl)methoxy)-2-fluoro-N-(methylsulfonyl)benzamide, trifluoroacetic acid salt]
20.7 | – | O=C(NS(=O)(=O)N1CCC1)c1cc(C2CC2)c(OC[C@@H]2CCCN(Cc3ccc(F)cc3Cl)C2)cc1F [Example 333]
6.4 | – | CC1(COc2cc(F)c(C(=O)NS(C)(=O)=O)cc2C2CC2)CN(Cc2cc(Cl)cc(Cl)c2)C1 [Example 77]
63.5 | – | O=C(NS(=O)(=O)N1CCC1)c1cc(C2CC2)c(CN2CCC[C@@H](Oc3cc(Cl)cc(Cl)c3)C2)cc1F [Example 56, (R)—N-(azetidin-1-ylsulfonyl)-5-cyclopropyl-4-((3-(3,5-dichlorophenoxy)piperidin-1-yl)methyl)-2-fluorobenzamide]
> 10000 | – | CS(=O)(=O)NC(=O)c1cc(C2CC2)c(OCC2CCN(S(C)(=O)=O)CC2)cc1F [Example 395, 5-cyclopropyl-2-fluoro-N-(methylsulfonyl)-4-((1-(methylsulfonyl)piperidin-4-yl)methoxy)benzamide]
16.3 | – | CS(=O)(=O)NC(=O)c1cc(C2CC2)c(OCC2CCN(S(=O)(=O)c3ccc(C(F)(F)F)cc3Cl)CC2)cc1F [Example 384, 4-((1-((2-chloro-4-(trifluoromethyl)phenyl)sulfonyl)piperidin-4-yl)methoxy)-5-cyclopropyl-2-fluoro-N-(methylsulfonyl)benzamide]
2.6 | – | CS(=O)(=O)NC(=O)c1cc(C2CC2)c(OCC2CN([C@H](c3ccccc3)c3cc(Cl)cc(Cl)c3)C2)cc1F [Example 143]
16 | – | CS(=O)(=O)NC(=O)c1cc(C2CC2)c(OCC2CCN(Cc3ccc(F)c(C(F)(F)F)c3)CC2)cc1F [Example 189, 5-Cyclopropyl-2-fluoro-4-((1-(4-fluoro-3-(trifluoromethyl)benzyl)piperidin-4-yl)methoxy)-N-(methylsulfonyl)benzamide]
– | 9.9 | O=C(NS(=O)(=O)C1CC1)c1cc(C2CC2)c(CN2CCN(S(=O)(=O)c3cc(Cl)cc(Cl)c3)CC2)cc1F [Example 527, 5-cyclopropyl-N-(cyclopropylsulfonyl)-4-((4-((3,5-dichlorophenyl)sulfonyl)piperazin-1-yl)methyl)-2-fluorobenzamide, trifluoroacetic acid salt]
43.2 | – | C[C@H](c1ccc(F)cc1Cl)N1C[C@H](Oc2cc(F)c(C(=O)NS(C)(=O)=O)cc2C2CC2)CC(C)(C)C1 [Example 452, 4-(((R)-1-((R)-1-(2-chloro-4-fluorophenyl)ethyl)-5,5-dimethylpiperidin-3-yl)oxy)-5-cyclopropyl-2-fluoro-N-(methylsulfonyl)benzamide, trifluoroacetic acid salt]
11.7 | – | O=C(NS(=O)(=O)C1CC1)c1cc(C2CC2)c(OCC2CN(c3cc(C(F)(F)F)c(Cl)cn3)C2)cc1F [Example 543, 4-((1-(5-chloro-4-(trifluoromethyl)pyridin-2-yl)azetidin-3-yl)methoxy)-5-cyclopropyl-N-(cyclopropylsulfonyl)-2-fluorobenzamide]
77.5 | – | CS(=O)(=O)NC(=O)c1cc(C2CC2)c(OCC2CCN(CC(F)(F)F)CC2)cc1F [Example 116, 5-Cyclopropyl-2-fluoro-N-(methylsulfonyl)-4-((1-(2,2,2-trifluoroethyl)-piperidin-4-yl)methoxy)benzamide]
6.4 | – | CC1(COc2cc(F)c(C(=O)NS(C)(=O)=O)cc2C2CC2)CN(C(c2ccccc2)c2ccccc2)C1 [Example 68, 4-((1-benzhydryl-3-methylazetidin-3-yl)methoxy)-5-cyclopropyl-2-fluoro-N-(methylsulfonyl)benzamide]
– | 13.6 | CS(=O)(=O)NC(=O)c1cc(C2CC2)c(CN2CCC(Oc3ccc(C(F)(F)F)cc3)CC2)cc1F [Example 499, 5-cyclopropyl-2-fluoro-N-(methylsulfonyl)-4-((4-(4-(trifluoromethyl)phenoxy)piperidin-1-yl)methyl)benzamide]
3.5 | – | CCS(=O)(=O)NC(=O)c1cc(C2CC2)c(OCC2(C)CN([C@@H](C)c3cc(Cl)cc(Cl)c3)C2)cc1F (single isomer, unassigned) [Example 289]
3.8 | – | CS(=O)(=O)NC(=O)c1cc(C2CC2)c(OCC2CCN(c3cccc(Cl)c3)CC2)cc1F [Example 294, 4-((1-(3-Chlorophenyl)piperidin-4-yl)methoxy)-5-cyclopropyl-2-fluoro-N-(methylsulfonyl)benzamide]

IC50 [1] [nM] | IC50 [nM] | SMILES
5.42 | – | CS(=O)(=O)NC(=O)c1cc(C2CC2)c(OCC2CCN(Cc3ccccc3C(F)(F)F)CC2)cc1F [Example 159, 5-Cyclopropyl-2-fluoro-N-(methylsulfonyl)-4-((1-(2-(trifluoromethyl)-benzyl)piperidin-4-yl)methoxy)benzamide]
14 | – | CS(=O)(=O)NC(=O)c1cc(C2CC2)c(OCC2CN(Cc3cc(Cl)cc(Cl)c3)C2)cc1F [Example 132, 5-Cyclopropyl-4-((1-(3,5-dichlorobenzyl)azetidin-3-yl)methoxy)-2-fluoro-N-(methylsulfonyl)benzamide]
2.6 | – | O=C(NS(=O)(=O)C1CC1)c1cc(C2CC2)c(O[C@@H]2CCCN(Cc3cc(Cl)cc(Cl)c3)C2)cc1F [Example 3, (R)-5-cyclopropyl-N-(cyclopropylsulfonyl)-4-((1-(3,5-dichlorobenzyl)piperidin-3-yl)oxy)-2-fluorobenzamide]
6.2 | – | CS(=O)(=O)NC(=O)c1cc(C2CC2)c(O[C@@H]2CCCN(Cc3ccc(C(F)(F)F)c(Cl)c3)C2)cc1F [Example 433, (R)-4-((1-(3-chloro-4-(trifluoromethyl)benzyl)piperidin-3-yl)oxy)-5-cyclopropyl-2-fluoro-N-(methylsulfonyl)benzamide, trifluoroacetic acid salt]
74 | – | CS(=O)(=O)NC(=O)c1cc(C2CC2)c(OCC2CN(Cc3cc(F)cc(Cl)c3)C2)cc1F [Example 75, 4-((1-(3-chloro-5-fluorobenzyl)azetidin-3-yl)methoxy)-5-cyclopropyl-2-fluoro-N-(methylsulfonyl)benzamide]
3.8 | – | CS(=O)(=O)NC(=O)c1cc(C2CC2)c(OCC2CCN(Cc3cc(C(F)(F)F)cc(Cl)c3F)CC2)cc1F [Example 581, 4-((1-(3-chloro-2-fluoro-5-(trifluoromethyl)benzyl)piperidin-4-yl)methoxy)-5-cyclopropyl-2-fluoro-N-(methylsulfonyl)benzamide]
9.1 | – | COc1ccc(CN2CCC[C@@H](Oc3cc(F)c(C(=O)NS(=O)(=O)C4CC4)cc3C3CC3)C2)cc1F [Example 313, (R)-5-cyclopropyl-N-(cyclopropylsulfonyl)-2-fluoro-4-((1-(3-fluoro-4-methoxybenzyl)piperidin-3-yl)oxy)benzamide]
– | 6600 | CC(=O)N1CCC[C@@H](Oc2cc(F)c(C(=O)NS(=O)(=O)C3CC3)cc2C2CC2)C1 [Example 4, (R)-4-((1-acetylpiperidin-3-yl)oxy)-5-cyclopropyl-N-(cyclopropylsulfonyl)-2-fluorobenzamide]
31.9 | – | C[C@H]1[C@@H](Oc2cc(F)c(C(=O)NS(C)(=O)=O)cc2C2CC2)CCCN1Cc1cc(Cl)cc(Cl)c1 [Example 330, 5-cyclopropyl-4-(((2S,3S)-1-(3,5-dichlorobenzyl)-2-methylpiperidin-3-yl)oxy)-2-fluoro-N-(methylsulfonyl)benzamide, trifluoroacetic acid salt]
7.51 | – | CC(c1cc(Cl)cc(Cl)c1)N1CC(COc2cc(F)c(C(=O)NS(C)(=O)=O)cc2C2CC2)C1 (stereo not drawn) [Example 98, 5-Cyclopropyl-4-((1-(1-(3,5-dichlorophenyl)ethyl)azetidin-3-yl)methoxy)-2-fluoro-N-(methylsulfonyl)benzamide]
1240 | – | C[C@@H](c1ccccc1)N1CC(COc2cc(F)c(C(=O)NS(C)(=O)=O)cc2C2CC2)C1 [Example 84, (S)-5-Cyclopropyl-2-fluoro-N-(methylsulfonyl)-4-((1-(1-phenylethyl)azetidin-3-yl)methoxy)benzamide]
– | 3.4 | O=C(NS(=O)(=O)C1CC1)c1cc(C2CC2)c(CN2CC(Oc3cc(Cl)cc(Cl)c3)C2)cc1F [Example 545, 5-cyclopropyl-N-(cyclopropylsulfonyl)-4-((3-(3,5-dichlorophenoxy)azetidin-1-yl)methyl)-2-fluorobenzamide, trifluoroacetic acid salt]
> 10000 | – | CS(=O)(=O)NC(=O)c1cc(C2CC2)c(O[C@@H]2CCCN(S(C)(=O)=O)C2)cc1F [Example 314, (R)-5-cyclopropyl-2-fluoro-N-(methylsulfonyl)-4-((1-(methylsulfonyl)piperidin-3-yl)oxy)benzamide]
42 | – | CS(=O)(=O)NC(=O)c1cc(C2CC2)c(OCC2CN(Cc3ccc(C(F)(F)F)c(F)c3)C2)cc1F [Example 76, 5-cyclopropyl-2-fluoro-4-((1-(3-fluoro-4-(trifluoromethyl)benzyl)azetidin-3-yl)methoxy)-N-(methylsulfonyl)benzamide]
71.3 | – | CS(=O)(=O)NC(=O)c1cc(C2CC2)c(OCC2CN([C@@H](c3ccccc3)c3ccccc3F)C2)cc1F [Example 124, (S)-5-Cyclopropyl-2-fluoro-4-((1-((2-fluorophenyl)(phenyl)methyl)azetidin-3-yl)methoxy)-N-(methylsulfonyl)benzamide]

SMILES | IC50 [1] [nM] | IC50 [nM]
O=C(NS(=O)(=O)C1CC1)c1cc(C2CC2)c(CN2C[C@@H]3C[C@H]2CN3S(=O)(=O)c2cc(Cl)cc(Cl)c2)cc1F [Example 559, 5-cyclopropyl-N-(cyclopropylsulfonyl)-4-(((1S,4S)-5-((3,5-dichlorophenyl)sulfonyl)-2,5-diazabicyclo[2.2.1]heptan-2-yl)methyl)-2-fluorobenzamide, trifluoroacetic acid salt] | – | 18.9
O=C(NS(=O)(=O)C1CC1)c1cc(C2CC2)c(OC[C@@H]2C[C@H]3CC[C@@H](C2)N3Cc2cc(C(F)(F)F)ccc2Cl)cc1F [Example 397, 4-(((1R,3S,5S)-8-(2-chloro-5-(trifluoromethyl)benzyl)-8-azabicyclo[3.2.1]octan-3-yl)methoxy)-5-cyclopropyl-N-(cyclopropylsulfonyl)-2-fluorobenzamide, trifluoroacetic acid salt] | 5.7 | –
